The text below walks through data of ChEMBL document CHEMBL1201862, “PubChem BioAssay data set” (2004).

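Each compound was tested at five concentrations against cells in 96-well plates for 48 hours. GI50 = concentration required for 50% inhibition of growth.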 The source made the active and inactive calls. Rule as the data show it: active = GI50 up to about 1.1 µM and inactive = higher.

Common to all, as to experiment: DTP human tumour cell line panel, 48 h
The subject of assay [1] is HL-60.
Assay [2] concerns K562.
The subject of assay [3] is DU-145.
The subject of assay [4] is UACC-62.
In assay [5] the test system is SK-MEL-5.
For assay [6], the system named is TK-10.
Assay [7] relates to SR.
Assay [8] concerns SK-MEL-2.
Assay [9] has as its system Malme-3M.
The test system of assay [10] is UACC-257.
The test system of assay [11] is OVCAR-5.
For assay [12], the system named is RPMI-8226.
For assay [13], the system named is RXF 393.
Assay [14] relates to MCF7.
In assay [15] the test system is NCI-H226.
In assay [16] the test system is MOLT-4.
The subject of assay [17] is CCRF-CEM.
The test system of assay [18] is OVCAR-4.
In assay [19] the test system is 786-0.
For assay [20], the system named is CAKI-1.

`C=C1c2nc3ccccc3n2C=C(c2ccc(C)cc2)N1c1ccccc1`: the GI50 in assay [1] is 1.85 µM (inactive); in assay [2] it was 1.11 µM (active); in assay [3] it was 3.9 µM (inactive); in [4] it was 2.86 µM (inactive); in assay [5] it was 2.13 µM (inactive); in assay [6] it was 18.8 µM (inactive). Besides, the GI50 was 0.445 µM (active) in [7]; 4.49 µM (inactive) in assay [8]; 2.62 µM (inactive) in [9]; 7.93 µM (inactive) in assay [10]; 20.7 µM (inactive) in assay [11]; 2.3 µM (inactive) in [12]. Also, the GI50 is 3.36 µM (inactive) in [13]; 2.47 µM (inactive) in assay [14]; 2.43 µM (inactive) in assay [15]; 4.41 µM (inactive) in assay [16]; 3.3 µM (inactive) in [17]; 22.4 µM (inactive) in assay [18]. Moreover, the GI50 in [19] is 3.48 µM (inactive); in assay [20], 20.5 µM (inactive).
For the molecule `COc1ccc(/C=C2\C(=O)NC(=O)c3ccccc32)cc1OC`, the GI50 in [1] was 2.68 µM (inactive); in [2], 3.15 µM (inactive); in assay [3], > 100 µM (inactive); in assay [4] it was 25.6 µM (inactive); in assay [5], 37.7 µM (inactive); in assay [6], > 100 µM (inactive). The GI50 in assay [7] was 2.42 µM (inactive); in assay [8] it was 45.3 µM (inactive); in assay [9], > 86.9 µM (inactive); in assay [10], > 100 µM (inactive); in [11], 60.8 µM (inactive); in assay [12], 5.47 µM (inactive). Moreover, the GI50 is 12.2 µM (inactive) in [13]; 56.9 µM (inactive) in assay [14]; 49.4 µM (inactive) in [15]; 5.77 µM (inactive) in [16]; 1.09 µM (active) in [17]; 34.6 µM (inactive) in assay [18]. Moreover, the values for the GI50 in assay [19] and in assay [20] were 16.8 µM (inactive) and 26.7 µM (inactive), respectively.
For the molecule `COc1c(O)c(O)cc2c1-c1ccc(OC)c(=O)cc1C(NC(C)=O)CC2` (configuration not stated), the GI50 is 4.85 µM (inactive) in assay [1]; 3.57 µM (inactive) in assay [2]; 12.3 µM (inactive) in assay [3]; 4.36 µM (inactive) in assay [4]; 2.52 µM (inactive) in assay [5]; 65.2 µM (inactive) in assay [6]. The GI50 in assay [7] was 3.24 µM (inactive); in [8], 3.15 µM (inactive); in assay [9], 5.7 µM (inactive); in [10], 7.26 µM (inactive); in [11], 40 µM (inactive); in assay [12], 10.9 µM (inactive). The GI50 was 2.84 µM (inactive) in [13]; 2.61 µM (inactive) in assay [14]; 21 µM (inactive) in [15]; 6.24 µM (inactive) in assay [16]; 3.72 µM (inactive) in [17]; 22.6 µM (inactive) in assay [18]. Also, the GI50 in assay [19] was 8.04 µM (inactive); in assay [20], 24.2 µM (inactive).
`Cc1ccc(/N=N/c2c(C)nn(C(=O)CC(=O)Nc3ccc(Cl)cc3)c2C)cc1C`: the GI50 was 24.4 µM (inactive) in [1]; > 100 µM (inactive) in assay [3]; 79.4 µM (inactive) in assay [4]; > 100 µM (inactive) in [5]; 49.2 µM (inactive) in assay [6]; 18.8 µM (inactive) in [7]. Moreover, the GI50 in assay [8] is 77.8 µM (inactive); in assay [9], 85.5 µM (inactive); in assay [10], > 100 µM (inactive); in [11], 98.2 µM (inactive); in assay [12], > 100 µM (inactive); in assay [13], 20.7 µM (inactive). Moreover, the GI50 in assay [14] is > 100 µM (inactive); in assay [15], > 100 µM (inactive); in [16], 28.7 µM (inactive); in [17] it was 29.1 µM (inactive); in [18] it was > 100 µM (inactive); in [19], 53 µM (inactive). Further, in [20], the GI50 is > 100 µM (inactive).
Consider `COc1cc(C2c3[nH]c4ccccc4c3C[C@H]3COC(=O)N23)cc(OC)c1OC` (some centres not stated), for which the GI50 is 0.0336 µM (active) in assay [1]; 0.0349 µM (active) in assay [2]; 0.0879 µM (active) in [3]; 0.0348 µM (active) in [4]; 0.0266 µM (active) in assay [5]; 5.36 µM (inactive) in assay [6]. Also, the GI50 in assay [7] was 0.0373 µM (active); in assay [8] it was 0.0655 µM (active); in assay [9], 0.0453 µM (active); in assay [10], 0.0321 µM (active); in [11], 0.112 µM (active); in assay [12], 0.0676 µM (active). Also, the GI50 in [13] is < 0.01 µM (active); in assay [14], 0.0406 µM (active); in assay [15], 0.0574 µM (active); in assay [16], 0.0966 µM (active); in assay [17] it was 0.0406 µM (active); in assay [18], 1.55 µM (inactive). In addition, the GI50 is 0.0304 µM (active) in assay [19] and 0.885 µM (active) in assay [20].
For `Oc1ccccc1C(Sc1nc2ccccc2s1)Sc1nc2ccccc2s1`, the GI50 in assay [1] was 37.1 µM (inactive); in assay [2] it was 56.2 µM (inactive); in assay [3], 24.2 µM (inactive); in assay [4], 69.2 µM (inactive); in assay [5] it was 44 µM (inactive); in assay [6], > 100 µM (inactive). For the same molecule, the GI50 in [7] is 43.7 µM (inactive); in assay [8], > 100 µM (inactive); in [9], 28.4 µM (inactive); in assay [10], > 100 µM (inactive); in assay [11], > 100 µM (inactive); in [12] it was 32.6 µM (inactive). The GI50 is > 100 µM (inactive) in [13]; > 100 µM (inactive) in assay [14]; 36.3 µM (inactive) in assay [15]; 44.2 µM (inactive) in assay [16]; 26.5 µM (inactive) in assay [17]; 76.4 µM (inactive) in assay [18]. Further, the GI50 in assay [19] is > 100 µM (inactive); in [20] it was 34.4 µM (inactive).
In the case of `C=CC[C@]1(C2=NC(C)(C)CO2)c2ccccc2-c2ccccc2[C@H]1C(C)=O`, the GI50 was 3.93 µM (inactive) in [1]; 4.91 µM (inactive) in [2]; 14.4 µM (inactive) in [3]; 5.65 µM (inactive) in assay [4]; 3.54 µM (inactive) in assay [5]; 12.5 µM (inactive) in [6]. The GI50 in assay [7] is 3.27 µM (inactive); in assay [8], 3.92 µM (inactive); in [9], 5.57 µM (inactive); in assay [10] it was 6.05 µM (inactive); in [11], 19.9 µM (inactive); in assay [12] it was 7.23 µM (inactive). In addition, the GI50 in assay [13] was 3.68 µM (inactive); in assay [14], 4.22 µM (inactive); in assay [15], 14 µM (inactive); in [16], 9.27 µM (inactive); in assay [17], 7.1 µM (inactive); in [18], 15.6 µM (inactive). The GI50 is 9.71 µM (inactive) in assay [19] and 10.5 µM (inactive) in assay [20].
Turning to `CCCc1nc(Cl)nc(Cl)c1Cl`, the GI50 in assay [1] is 0.189 µM (active); in assay [2], < 0.0343 µM (active); in assay [3], 2.41 µM (inactive); in assay [4] it was 0.703 µM (active); in assay [5], 0.935 µM (active); in [6], 0.762 µM (active). In addition, the GI50 was < 0.0154 µM (active) in assay [7]; 0.291 µM (active) in assay [8]; 0.453 µM (active) in [9]; 0.615 µM (active) in [10]; 0.817 µM (active) in assay [11]; 0.258 µM (active) in assay [12]. The GI50 in assay [13] is 0.256 µM (active); in assay [14], 0.137 µM (active); in assay [15], 2.35 µM (inactive); in [16], 0.065 µM (active); in assay [17] it was < 0.0264 µM (active); in [18], 0.0871 µM (active). Further, the GI50 was 0.127 µM (active) in [19] and 0.251 µM (active) in [20].
`CSc1nc2c3ccccc3ccn2c1C(=O)N/N=C/c1ccccc1`: the GI50 in assay [1] was > 100 µM (inactive); in assay [2] it was > 100 µM (inactive); in [3], > 74.6 µM (inactive); in [4] it was > 100 µM (inactive); in assay [5], > 74.8 µM (inactive); in assay [7] it was 41.9 µM (inactive). Besides, the GI50 in assay [8] was > 95.7 µM (inactive); in assay [9] it was 47.6 µM (inactive); in [10], > 100 µM (inactive); in assay [11] it was > 75.5 µM (inactive); in [12] it was > 100 µM (inactive); in assay [13], 32 µM (inactive). Besides, the GI50 is > 46.3 µM (inactive) in assay [14]; 36 µM (inactive) in assay [15]; > 100 µM (inactive) in [16]; > 100 µM (inactive) in assay [17]; 14.1 µM (inactive) in assay [18]; 15.5 µM (inactive) in assay [19]. The GI50 in assay [20] is 14.9 µM (inactive).
As to `CCOC(=O)c1csc(NC(=O)CN2CCN(C)CC2)n1`, the GI50 in assay [1], in [2], in assay [3], in [4], in assay [5] and in [6] was > 100 µM (inactive) in each case. Further, the GI50 in assay [7], in [8], in assay [9], in assay [10], in assay [11] and in [12] was > 100 µM (inactive) throughout. Moreover, the GI50 in assay [13], in [14], in assay [15], in assay [16], in assay [17] and in assay [18] was > 100 µM (inactive) throughout. Besides, the GI50 in [20] was > 100 µM (inactive).
